From patent publication US20260207798A1, “CYCLIC PEPTIDES AS PET IMAGING AGENTS OF GRANZYME B” (priority 2022, published 2026) come the findings set out here.

Bridge positions count the residues as written; N and C are the ends. Square brackets hold non-standard residues; d marks the D form. Primed or numbered codes have the meaning given here. Peptide text beside a SMILES is read from it. I, II: the chains in the order shown. * marks the point of attachment. NOTA‑1 = 1,4,7-triazacyclononane-N,N',N''-triacetic acid phenyl thiourea; X1 = O=C(O)CN1CCN(CC(=O)O)CC(Cc2ccc(NC(=S)*)cc2)N(CC(=O)O)CC1; Pro(trans-4-F) = O=C(O)[C@@H]1C[C@@H](F)CN1; Pro(4R-Me) = C[C@H]1CN[C@H](C(=O)O)C1; Tic = O=C(O)[C@@H]1Cc2ccccc2CN1; PEG2′ = not defined here

Assay [1] has as its target Human Granzyme B (Homo sapiens, UniProt P10144). The experiment in a line: Granzyme B biochemical inhibition assay (fluorescence). To be noted: 8 nM granzyme B; values below 8 nM reported as <8 nM. As for the experimental part: Compounds to be tested as inhibitors were manually prepared in a 2-fold serial dilutions in DMSO, spanning 200 uM to 0.39 uM in a Labcyte Echo qualified low dead volume 384-well plate. Then an ECHO acoustic liquid handler was used to dispense 125 nL of each compound from 384-well plate into a PerkinElmer Proxiplate-384 Plus F assay plate. For the positive control of inhibitor, (S)-3-((3S,6S)-3-((2S,3S)-2-acetamido-3-methylpentanamido)-4-oxo-1,2,3,4,6,7-hexahydroazepino[3,2,1-hi]indole-6-carboxamido)-4-oxobutanoic acid (see C. A. Willoughby et al./Bioorg. Med. Chem. Lett. 12 (2002) 2197-2200 2199) was used at 2 uM assay concentration. For no inhibition control, DMSO was used. Each compound was run in duplicate.
Once the compounds were dispensed in the plates, enzyme mix and substrate mix were prepared. Enzyme mix was prepared by preparing a mixture of 300 uL granzyme B (final concentration 8 nM) and 10.8 mL of assay buffer (from Sigma kit). Substrate mix was prepared by combining 500 uL substrate (from Sigma kit) and 3 mL of assay buffer (from Sigma kit). Enzyme mixture was loaded on BioRaptr and 9.25 uL were added to each well of the assay plate containing compounds. The plate was incubated at room temperature under a metal gasket cover for 30 minutes. Subsequently, 3.125 uL of substrate mix were added to each well using the BioRaptr, reaching a final assay volume of 12.5 uL, and the plate was monitored using a Pherastar FS by 1 read per minute for 30 minutes in fluorescence mode, excitation wavelength is 400 nm and emission wavelength is 510 nm.
The data analysis was performed first in excel, where the slopes of the measured fluorescence from each sample were determined using MARS software from BMG LABTECH. These rates were then multiplied by 10,000 for visualization purposes. The rates, multiplied by 10,000, were normalized to 0% and 100% activity based on the average values of the samples with either 2 uM inhibitor (S)-3-((3S,6S)-3-((2S,3S)-2-acetamido-3-methylpentanamido)-4-oxo-1,2,3,4,6,7-hexahydroazepino[3,2,1-hi]indole-6-carboxamido)-4-oxobutanoic acid, or no inhibitor respectively. All samples were then normalized against these values using the formula={100−[(sample−100% inhib)/0% inhib]}*100 to achieve a normalized percent inhibition. Normalized percent inhibition versus concentration inhibitor was then plotted in Graphpad Prism version 9.0.0 and a variable slope (four parameters) fit was calculated for each inhibitor.

For assay [2], the target named is human Granzyme B (hGranzyme B) (Homo sapiens, UniProt P10144). Put plainly: Surface plasmon resonance (SPR) binding kinetics to hGranzyme B. The following applies: 25° C., 1:1 binding model, KD=kd/ka; read-out: Granzyme B SPR Kd. As for the experimental part:
The kinetics of test peptide binding to human Granzyme B (hGranzyme B) was determined by SPR. All experiments were performed at 25° C. using the Biacore 8k+ instrument (Cytiva, Marlborough, MA). The Biacore 8k+ Insight Evaluation Software Version 3.0 was used to fit the data with a 1:1 binding model to determine the association rate constant ka (M^−1s^−1, where “M” ~equals molar and “s” ~equals seconds) and the dissociation rate constant kd (s^−1). These rate constants were used to calculate the equilibrium dissociation constant. KD (M)=kd/ka.
To measure the binding kinetics of peptides of interest, surfaces were prepared by a capture method to a Series S Streptavidin (SA) chip using a 1×HBS-EP+ running buffer (Cytiva). hGranzyme B was diluted to 10 μg/mL in IX HBS-EP+ and flowed over spot 2 of each flow cell on the chip at a flow rate of 10 ul/min for 20 s to achieve a level of capture of ~1100 RU. An unmodified spot 1 of each flow cell was used as a matrix binding control or reference surface. Binding kinetics were measured using single cycle kinetics at 25° C. by injecting 5 concentrations with 3-fold serial dilutions of test peptides from 0.01 μM to 1 μM. Compound dilutions were performed manually in a running buffer containing 1×HBS-EP+(Cytiva), and a final concentration of 2% DMSO. The interaction analyses over hGranzyme B, were performed using a 120 s association time and a 900 s dissociation time. All experiments were conducted at a flow rate of 50 μL/min with a data collection rate of 10 Hz.
Peptide dilution series included 2 zero concentration points (no compound) which were averaged and subtracted from the peptide concentration injection as DMSO control responses. Binding data acquired from the reference surface (matrix binding control) were subtracted from the binding data for hGranzyme B surface on the chip to determine specific binding. Next, the association phase data were solvent corrected to account for any signal fluctuation throughout the experiment due to subtle DMSO concentration differences. Corrected response data were analyzed using the Biacore 8k+ Evaluation Software Version 3.0 according to the manufacturer. SPR data for representative compounds of the disclosure are found in Table 8.
For orientation: In SPR one partner is held on a chip, and binding of the other changes the refractive index at the surface.

For assay [3], the target named is T1, human Granzyme B (human, UniProt P10144 21-247).
T1 construct: Captured on a Series S Streptavidin chip for SPR; also called hGranzyme B; GzmB
T1 sequence (P10144 21-247 limits assumed): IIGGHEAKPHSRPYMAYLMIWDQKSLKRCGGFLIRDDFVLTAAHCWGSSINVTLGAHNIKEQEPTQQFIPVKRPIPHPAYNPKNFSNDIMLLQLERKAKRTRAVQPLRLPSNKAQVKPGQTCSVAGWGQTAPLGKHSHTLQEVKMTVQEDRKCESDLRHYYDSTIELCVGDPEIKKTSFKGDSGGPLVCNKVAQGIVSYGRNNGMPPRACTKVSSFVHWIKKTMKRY
Put plainly: SPR, Biacore 8k+, hGranzyme B captured on SA chip, single cycle kinetics, 1:1 model.

Assay [4] has as its target T1, human Granzyme B. Put plainly: cell-based or functional assay.

Human Granzyme B, sequence (P10144 21-247): as the sequence (P10144 21-247 limits assumed) above

What is called IC50 is the concentration that inhibits the measured activity by half. Lower therefore signals greater potency. The molecule `C[C@@H](O)[C@@H]1NC(=O)[C@H](CC(=O)O)NC(=O)[C@@H]2C[C@@H](F)CN2C(=O)[C@H](CO)NC(=O)[C@H](CCC(N)=O)NC(=O)[C@H](CC(=O)O)NC(=O)[C@H](CCC(=O)O)NC(=O)[C@H](Cc2ccccc2)NC(=O)[C@H](CC(N)=O)NC(=O)[C@H](Cc2ccccc2)NC(=O)CSC[C@@H](C(=O)NCC(=O)NCC(=O)N[C@@H](CCCCNC(=S)Nc2ccc(CC3CN(CC(=O)O)CCN(CC(=O)O)CCN3CC(=O)O)cc2)C(N)=O)NC(=O)[C@@H]2CCCN2C(=O)[C@H](CCC(N)=O)NC(=O)[C@H](Cc2c[nH]c3ccccc23)NC1=O` (single isomer, unassigned) [Compound 12a, *F.N.F.E.D.Q.S.Prot4F.D.T.W.Q.P.*C.G.G.K(NOTA-1).NH2] showed an IC50 against Human Granzyme B [1] of under 8 nM.
Still for that read-out and setting: the result for `C[C@@H]1NC(=O)[C@H](CO)NC(=O)[C@H](CCC(N)=O)NC(=O)[C@H](CC(=O)O)NC(=O)[C@H](CCC(=O)O)NC(=O)[C@H](Cc2ccccc2)NC(=O)[C@H](CC(N)=O)NC(=O)[C@H](Cc2ccccc2)NC(=O)CSC[C@@H](C(=O)NCC(N)=O)NC(=O)[C@@H]2CCCN2C(=O)[C@H](CCC(N)=O)NC(=O)[C@H](Cc2c[nH]c3ccccc23)NC(=O)[C@H]([C@@H](C)O)NC(=O)[C@H](CC(=O)O)NC1=O` [Compound 1a, *F.N.F.E.D.Q.S.A.D.T.W.Q.P.*C.G.NH2] ({CH2CO}-FNFEDQSADTWQPCG-NH2; thioether N-14) reads under 8 nM.
Same read-out and setting: then `C[C@@H]1NC(=O)[C@H](CO)NC(=O)[C@H](CCC(N)=O)NC(=O)[C@H](CC(=O)O)NC(=O)[C@H](CCC(=O)O)NC(=O)[C@H](Cc2ccccc2)NC(=O)[C@H](CC(N)=O)NC(=O)[C@H](Cc2ccccc2)NC(=O)CSC[C@@H](C(=O)NCC(=O)NCC(=O)N[C@@H](CCCCNC(=S)Nc2ccc(CC3CN(CC(=O)O)CCN(CC(=O)O)CCN3CC(=O)O)cc2)C(N)=O)NC(=O)[C@@H]2CCCN2C(=O)[C@H](CCC(N)=O)NC(=O)[C@H](Cc2c[nH]c3ccccc23)NC(=O)[C@H]([C@@H](C)O)NC(=O)[C@H](CC(=O)O)NC1=O` (some centres unmarked) [Compound 2a, *F.N.F.E.D.Q.S.A.D.T.W.Q.P.*C.G.G.K(NOTA-1).NH2] ({CH2CO}-FNFEDQSADTWQPCGGK(X1)-NH2; thioether N-14), with under 8 nM; and `C[C@@H](O)[C@@H]1NC(=O)[C@H](CC(=O)O)NC(=O)[C@@H]2CCCN2C(=O)[C@H](CO)NC(=O)[C@H](CCC(N)=O)NC(=O)[C@H](CC(=O)O)NC(=O)[C@H](CCC(=O)O)NC(=O)[C@H](Cc2ccccc2)NC(=O)[C@H](CC(N)=O)NC(=O)[C@H](Cc2ccccc2)NC(=O)CSC[C@@H](C(=O)NCC(N)=O)NC(=O)[C@@H]2CCCN2C(=O)[C@H](CCC(N)=O)NC(=O)[C@H](Cc2c[nH]c3ccccc23)NC1=O` [Compound 25a, *F.N.F.E.D.Q.S.P.D.T.W.Q.P.*C.G.NH2] ({CH2CO}-FNFEDQSPDTWQPCG-NH2; thioether N-14), with under 8 nM.
One may read the Kd as the concentration at which binding is half-saturated. For `C[C@@H](O)[C@@H]1NC(=O)[C@H](CC(=O)O)NC(=O)[C@@H]2CCCN2C(=O)[C@H](CO)NC(=O)[C@H](CCC(N)=O)NC(=O)[C@H](CC(=O)O)NC(=O)[C@H](CCC(=O)O)NC(=O)[C@H](Cc2ccccc2)NC(=O)[C@H](CC(N)=O)NC(=O)[C@H](Cc2ccccc2)NC(=O)CSC[C@@H](C(=O)NCC(N)=O)NC(=O)[C@@H]2Cc3ccccc3CN2C(=O)[C@H](CCC(N)=O)NC(=O)[C@H](Cc2c[nH]c3ccccc23)NC1=O` [Compound 53a, *F.N.F.E.D.Q.S.P.D.T.W.Q.Tic.*C.G.NH2] ({CH2CO}-FNFEDQSPDTWQ[Tic]CG-NH2; thioether N-14), in assay [2], the Kd was 4.9 nM.
The same measure, in the same setting: the result for `C[C@@H]1C[C@H]2C(=O)N[C@H](C(=O)NCC(N)=O)CSCC(=O)N[C@@H](Cc3ccccc3)C(=O)N[C@@H](CC(N)=O)C(=O)N[C@@H](Cc3ccccc3)C(=O)N[C@@H](CCC(=O)O)C(=O)N[C@@H](CC(=O)O)C(=O)N[C@@H](CCC(N)=O)C(=O)N[C@@H](CO)C(=O)N3CCC[C@H]3C(=O)N[C@@H](CC(=O)O)C(=O)N[C@@H]([C@@H](C)O)C(=O)N[C@@H](Cc3c[nH]c4ccccc34)C(=O)N[C@@H](CCC(N)=O)C(=O)N2C1` [Compound 55a, *F.N.F.E.D.Q.S.P.D.T.W.Q.Prot4Me.*C.G.NH2] ({CH2CO}-FNFEDQSPDTWQ[Pro(4R-Me)]CG-NH2; thioether N-14) reads 5.1 nM.
The same measure, in the same setting: the result for `C[C@@H](O)[C@@H]1NC(=O)[C@H](CC(=O)O)NC(=O)[C@@H]2C[C@@H](F)CN2C(=O)[C@H](CO)NC(=O)[C@H](CCC(N)=O)NC(=O)[C@H](CC(=O)O)NC(=O)[C@H](CCC(=O)O)NC(=O)[C@H](Cc2ccccc2)NC(=O)[C@H](CC(N)=O)NC(=O)[C@H](Cc2ccccc2)NC(=O)CSC[C@@H](C(=O)NCC(=O)NCC(=O)N[C@@H](CCCCN)C(N)=O)NC(=O)[C@@H]2CCCN2C(=O)[C@H](CCC(N)=O)NC(=O)[C@H](Cc2c[nH]c3ccccc23)NC1=O` [Compound 87a, *F.N.F.E.D.Q.S.Prot4F.D.T.W.Q.P.*C.G.G.K.NH2] ({CH2CO}-FNFEDQS[Pro(trans-4-F)]DTWQPCGGK-NH2; thioether N-14) reads 4.2 nM.

B1: Compound 1a (peptide)
peptide: {CH2CO}-FNFEDQSADTWQPCG-NH2
modifications: thioether N-14
SMILES: C[C@@H]1NC(=O)[C@H](CO)NC(=O)[C@H](CCC(N)=O)NC(=O)[C@H](CC(=O)O)NC(=O)[C@H](CCC(=O)O)NC(=O)[C@H](Cc2ccccc2)NC(=O)[C@H](CC(N)=O)NC(=O)[C@H](Cc2ccccc2)NC(=O)CSC[C@@H](C(=O)NCC(N)=O)NC(=O)[C@@H]2CCCN2C(=O)[C@H](CCC(N)=O)NC(=O)[C@H](Cc2c[nH]c3ccccc23)NC(=O)[C@H]([C@@H](C)O)NC(=O)[C@H](CC(=O)O)NC1=O
As to B1, binding in the assay with human Granzyme B [3] was characterised by a dissociation constant (Kd) of 19.8 nM. The “Human Granzyme B IC50 (fluorogenic substrate enzyme inhibition assay)” value with human Granzyme B [4] was under 8 nM.

B2: Compound 12a (peptide)
peptide: {CH2CO}-FNFEDQS[Pro(trans-4-F)]DTWQPCGGK(NOTA‑1)-NH2
modifications: thioether N-14
B2 displayed a Kd with human Granzyme B [3] of 1.6 nM. In addition, in the assay with human Granzyme B [4], the “Human Granzyme B IC50 (fluorogenic substrate enzyme inhibition assay)” value was under 8 nM.

B3: Compound 2a (peptide)
peptide: {CH2CO}-FNFEDQSADTWQPCGGK(NOTA‑1)-NH2
modifications: thioether N-14
In the assay with human Granzyme B [3], B3 gave a Kd of 13.5 nM. Further, in the assay with human Granzyme B [4], the “Human Granzyme B IC50 (fluorogenic substrate enzyme inhibition assay)” value was under 8 nM.

B4: Compound 5a (peptide)
peptide 1: {‑CH2C(O)‑}-FNFEDQSADTWQPCGGK-NH2
peptide 2: {‑CH2C(O)‑}-FNFEDQSADTWQPCGGK-NH2
modifications: linker I:17-II:17 via PEG2′; also: dimer of two macrocycles linked by PEG2 between Lys17 side chains, thioether at chain A 14 to a chain's N-terminus, thioether at chain B 14 to a chain's N-terminus
notes: Dimer of two macrocycles linked by PEG2
For B4, the “Human Granzyme B IC50 (fluorogenic substrate enzyme inhibition assay)” value with human Granzyme B [4] was under 8 nM.
